Measurements reported in PubChem BioAssay (NCI).
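Cells were grown in 96-well plates and exposed to each compound for 48 hours at five concentrations; endpoints were interpolated linearly between bracketing concentrations, or set to the highest concentration if not reached. GI50 marks 50% less growth. TGI denotes the concentration required for complete inhibition of growth.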

Tests used:
Assay in all cases: NCI tumour cell line growth inhibition, 48 h
IGROV1 ovarian = test system: IGROV1 ovarian
TK-10 renal = test system: TK-10 renal
HS 578T breast = test system: HS 578T breast
COLO 205 colon = test system: COLO 205 colon
MALME-3M melanoma = test system: MALME-3M melanoma
MCF7 breast = test system: MCF7 breast
NCI-H226 lung = test system: NCI-H226 lung
NCI-H460 lung = test system: NCI-H460 lung
SK-MEL-28 melanoma = test system: SK-MEL-28 melanoma
A498 renal = test system: A498 renal

Row | Structure (SMILES) | TGI (IGROV1 ovarian) | TGI (TK-10 renal) | TGI (HS 578T breast) | TGI (COLO 205 colon) | TGI (MALME-3M melanoma) | TGI (MCF7 breast) | TGI (NCI-H226 lung) | TGI (NCI-H460 lung) | TGI (SK-MEL-28 melanoma) | TGI (A498 renal) | GI50 (TK-10 renal) | GI50 (MALME-3M melanoma) | GI50 (MCF7 breast) | GI50 (NCI-H226 lung) | GI50 (A498 renal)
1 | O=P1(N(CCCl)CCCl)NCCCO1 (stereo not given) | > 239 µM | > 250 µM | > 250 µM | > 250 µM | > 250 µM | > 250 µM | > 250 µM | > 238 µM | > 250 µM | > 250 µM |  |  |  |  | 
2 | O=c1[nH]nc(N/N=C\c2ccc(Cl)cc2)c2ccccc12 | 37.2 µM | 54.4 µM | 62.7 µM | 45.9 µM | 45.4 µM | 64 µM | 57.4 µM | 47.9 µM | 56.9 µM | 51.2 µM |  |  |  |  | 
3 | CCOC(=O)COC1=Nc2cc(OC)c(OC)c3nc(Cl)cc(c23)C1=O | 5.97 µM | 3.45 µM | > 20.6 µM | 3.88 µM | 2.71 µM | 3.46 µM | 28.6 µM | 39.3 µM | 4.01 µM | 23.5 µM |  |  |  |  | 
4 | CCn1c(SCc2nnc(Nc3ccccc3)s2)nc2ccccc2c1=O | 15.7 µM | 12.3 µM | 8.56 µM | 43.2 µM | 14 µM | > 93.6 µM | 7.75 µM | 4.77 µM | 60.8 µM | 3.92 µM |  |  |  |  | 
5 | CCC1(O)CC(O)c2c(O)c3c(c(O)c2C1C(=O)OC)C(=O)c1cccc(O)c1C3=O (stereo not given) | 12.1 µM | 24.3 µM | 24.5 µM | 7.65 µM | 7.08 µM | 16.9 µM | 18.1 µM | 14.2 µM | 75.4 µM | 18.4 µM |  |  |  |  | 
6 | CCCOC1OC(CS(=O)(=O)O)C(OC(C)=O)C(OC(C)=O)C1OC(C)=O (stereo not given) | > 100 µM | > 100 µM | > 100 µM | > 100 µM | > 100 µM | > 100 µM | > 100 µM | > 100 µM | > 100 µM | > 100 µM |  |  |  |  | 
7 | C=C(C)[C@@H]1CC[C@]2(C(=O)OC3OC(COC4OC(CO)C(OC5OC(C)C(O)C(O)C5O)C(O)C4O)C(O)C(O)C3O)CC[C@]3(C)[C@H](CC[C@@H]4[C@@]5(C)CC[C@H](O)[C@@](C)(CO)[C@@H]5CC[C@]43C)[C@@H]12 (stereo not given in full) | > 10 µM | > 10 µM | > 9.62 µM | 3.2 µM | > 10 µM | > 10 µM | > 10 µM | 5.11 µM | > 10 µM | > 10 µM |  |  |  |  | 
8 | C#Cc1cccc(Nc2ncnc3cc(OCCOC)c(OCCOC)cc23)c1 | 16.9 µM | 47.8 µM | 86.3 µM | > 100 µM | 43 µM | > 100 µM | > 100 µM | > 91.4 µM | > 100 µM | 45.8 µM | 0.196 µM | 1.85 µM | > 100 µM | 47.4 µM | 2.19 µM
9 | O=[N+]([O-])c1cccc([N+](=O)[O-])c1Cl | 30.6 µM | 41.3 µM | 82.3 µM | 91.2 µM | 34.7 µM | > 100 µM | 68.4 µM | > 100 µM | 42 µM | 38.8 µM |  |  |  |  | 
10 | N#C[C@H]1C(=O)C(c2nc3ccccc3[nH]2)S[C@H]1c1ccccc1 (stereo not given in full) | > 100 µM | > 100 µM | > 100 µM | > 100 µM | > 100 µM | > 100 µM | > 100 µM | > 100 µM | > 100 µM | 79 µM |  |  |  |  | 
11 | Cc1cn([C@@H]2C[C@](C)(CO)N(C)O2)c(=O)[nH]c1=O | > 100 µM | > 100 µM | > 100 µM | > 100 µM | > 100 µM | > 100 µM | > 100 µM | > 100 µM | > 100 µM | > 100 µM |  |  |  |  | 
12 | COc1ccc(/C=N/N=C(\N)NO)c(OC)c1OC | > 100 µM | > 100 µM | > 100 µM | > 100 µM | > 100 µM | > 100 µM | 74.3 µM | > 100 µM | > 100 µM | 77.6 µM |  |  |  |  | 
